Converted amounts (≈) assume the structure as drawn. “And” between values parts separate entries of the source, which are not always exact repeats. Equal entries are not always repeated. Where two headings read alike, the source gives them in different places.
How the values were obtained:
[1] = Lipophilicity determination by HPLC; format: physicochemical; conditions: for log D6.5: HPLC C18, MeOH 72%/acetate-buffered saline pH 6.5 28%; for log D7.4: HPLC C18, MeOH 72%/acetate-buffered saline pH 7.4 28%; for log k: logarithm of capacity factor, HPLC C18, MeOH 72%/H2O 28%
Description: . A chromatographic column Symmetry® C18 5 μm, 4.6 × 250 mm, Part No. W21751W016 (Waters Corp, Milford, MA, USA) was used. The HPLC separation process was monitored by ChemStation for LC 3D systems (Agilent Technologies). Isocratic elution by a mixture of MeOH (HPLC grade, 72%) and H2O-HPLC Mili-Q grade (28%) as a mobile phase was used for the determination of capacity factor k. Isocratic elution by a mixture of MeOH (HPLC grade, 72%) and acetate-buffered saline (pH 7.4 and pH 6.5) (28%) as a mobile phase was used for the determination of distribution coefficient expressed as D7.4 and D6.5. The total flow of the column was 1.0 mL/min, injection was 20 μL, column temperature was 40 °C, and sample temperature was 10 °C. The detection wavelength of 210 nm was chosen. A KI methanolic solution was used for the determination of the dead times (tD). Retention times (tR) were measured in minutes. The capacity factors k were calculated according to the formula k = (tR − tD)/tD, where tR is the retention time of the solute, and tD is the dead time obtained using an unretained analyte. The distribution coefficients DpH were calculated according to the formula DpH = (tR − tD)/tD. Each experiment was repeated three times.

M. smegmatis ATCC 700084 = assay: In vitro antimycobacterial evaluation, MIC (broth dilution micro-method); format: cell-based, Mycobacterium smegmatis
Protocol: For M. smegmatis, the broth dilution micro-method in Middlebrook 7H9 medium (Difco) supplemented with ADC Enrichment (Difco) was used. […] Bacterial inocula were prepared by transferring colonies from culture to sterile water. The cell density was adjusted to 0.5 McFarland units using a densitometer (Densi-La-Meter, LIAP, Riga, Latvia). The final inoculum was made by 1:1000 dilution of the suspension with sterile water. Drug-free controls, sterility controls, and controls consisting of medium and DMSO alone were included. The determination of results was performed visually after three days of static incubation in the darkness at 37 °C in an aerobic atmosphere.

[2] = system: methicillin-resistant S. aureus SA 630; assay: In vitro antibacterial evaluation, MIC by microtitration broth method; conditions: Staphylococcus aureus, 24 h
[3] = system: human monocytic leukemia cell line THP-1; assay: In vitro cell viability analysis (CCK-8); format: cell-based; conditions: ± SD, n = 6, medium with 10% FBS, 24 h
Protocol: Human monocytic leukemia THP-1 cells obtained from the European Collection of Cell Cultures (ECACC, Salisbury, UK) were used for in vitro antiproliferative assays. They were routinely cultured in Roswell Park Memorial Institute RPMI 1640 medium supplemented with 10% fetal bovine serum (FBS), 2% L-glutamine, 1% penicillin, and streptomycin (all from Sigma-Aldrich) at 37 °C with 5% CO2. The cells were incubated in a complete medium (i.e., containing FBS) with test compounds at 37 °C with 5% CO2 for 24 h, similarly as we described previously. The effect of the test compounds dissolved in DMSO on cell viability was determined using a Cell Counting Kit-8 (CCK-8; Sigma) according to the manufacturer’s instructions.

[4] = system: methicillin-resistant S. aureus 63718; assay: In vitro antibacterial evaluation, MIC by microtitration broth method; conditions: Staphylococcus aureus, 24 h
[5] = system: Enterococcus faecalis ATCC 29212; assay: as above; conditions: ATCC29212, 24 h
[6] = system: vancomycin-resistant E. faecalis VRE 725B; assay: as above; conditions: Enterococcus faecalis, 24 h
[7] = system: vancomycin-resistant E. faecalis VRE 368; assay: as above; conditions: Enterococcus faecalis, 24 h
[8] = system: Staphylococcus aureus ATCC 29213; assay: Determination of minimum bactericidal concentrations (agar aliquot subculture); conditions: ATCC29213
[9] = system: methicillin-resistant S. aureus 63718; assay: as above; conditions: Staphylococcus aureus
[10] = system: methicillin-resistant S. aureus SA 3202; assay: as above; conditions: Staphylococcus aureus
S. aureus ATCC 29123 = assay: Crystal violet uptake (membrane permeability); conditions: 4× MIC, 1 h; compared to growth control and 1% Tween 20
[11] = system: vancomycin-resistant E. faecalis VRE 342B; assay: In vitro antibacterial evaluation, MIC by microtitration broth method; conditions: Enterococcus faecalis, 24 h
[12] = system: Staphylococcus aureus ATCC 29213; assay: as above; conditions: ATCC29213, 24 h
[13] = system: Mycobacterium tuberculosis H37Ra/ATCC 25177; assay: In vitro antimycobacterial evaluation, MIC (alamarBlue); conditions: MT; 14 days, 37 °C
S. aureus ATCC 29213 = assay: MTT assay of bacterial viability (respiration); conditions: for Conc.: lowest multiple of MBC with at least 70% inhibition of S. aureus viability / Conc.: lowest multiple of MIC with at least 70% inhibition of S. aureus viability: MTT, 24 h; for viability of bacterial cells: at their MIC value or below
[14] = system: methicillin-resistant S. aureus SA 3202; assay: In vitro antibacterial evaluation, MIC by microtitration broth method; conditions: Staphylococcus aureus, 24 h
[15] = system: methicillin-resistant S. aureus SA 630; assay: Determination of minimum bactericidal concentrations (agar aliquot subculture); conditions: Staphylococcus aureus
[16] = system: methicillin-resistant S. aureus 63718; parameters: method as in PMID 26079401; conditions: MRSA 63718 (VA2-MRSA); cited from earlier work
[17] = system: Enterococcus faecalis ATCC 29212; assay: Determination of minimum bactericidal concentrations (agar aliquot subculture); conditions: ATCC29212
[18] = system: vancomycin-resistant E. faecalis VRE 368; assay: as above; conditions: Enterococcus faecalis
[19] = system: vancomycin-resistant E. faecalis VRE 725B; assay: as above; conditions: Enterococcus faecalis
[20] = system: vancomycin-resistant E. faecalis VRE 342B; assay: as above; conditions: Enterococcus faecalis

SMILES	log D6.5 [1]	log D7.4 [1]	log k [1]	MIC [2] [µM]	IC50 [3] [nM]	MIC [4] [µM]	MIC [5] [µM]	MIC [6] [µM]	MIC [7] [µM]	MBC [8] [µM]	MBC [9] [µM]	MBC [10] [µM]	effect on plasma membrane permeability (crystal violet uptake) (S. aureus ATCC 29123)	MIC [12] [µM]	MIC [13]	Conc.: lowest multiple of MBC with at least 70% inhibition of S. aureus viability (S. aureus ATCC 29213)	Conc.: lowest multiple of MIC with at least 70% inhibition of S. aureus viability (S. aureus ATCC 29213)	viability of bacterial cells (S. aureus ATCC 29213)	MIC [14] [µM]	MBC [15] [µM]	further results
O=C(N[C@@H](CC1CCCCC1)C(=O)Nc1ccc(C(F)(F)F)cc1)c1cc(Cl)ccc1O [3g, 5-Chloro-N-[(2S)-3-cyclohexyl-1-oxo-1-{[4-(trifluoromethyl)phenyl]amino}propan-2-yl]-2-hydroxybenzamide]	1.615	1.576	1.679	1.07 (≈ 0.502 µg/mL)	1400 ± 1100	2.13 (≈ 0.999 µg/mL)	546 (≈ 256 µg/mL)	546 (≈ 256 µg/mL)	546 (≈ 256 µg/mL)	1.07 (≈ 0.502 µg/mL)	2.13 (≈ 0.999 µg/mL)	1.07 (≈ 0.502 µg/mL)	did not affect plasma membrane permeability	1.07 (≈ 0.502 µg/mL)	n.a. n.d. (n.a. = no activity (MIC > 256 µg/mL))	0.5× MIC (0.5× MBC)	0.5× MIC (0.5× MBC)	less than 70%	1.07 (≈ 0.502 µg/mL)	2.13 (≈ 0.999 µg/mL)	averaged lipophilicity value of log k/log D6.5/log D7.4 ([1]; average of the three experimental descriptors): 1.62 ± 0.05; MIC (M. smegmatis ATCC 700084; Mycolicibacterium smegmatis, ATCC700084, 72 h, MS, three days, 37 °C, read-out: MIC): > 256 µg/mL; MIC [11]: 546 µM (≈ 256 µg/mL); S. aureus Viability Inhibition (S. aureus ATCC 29213; at 0.5× MIC (0.5× MBC)): 95.2%
CN[C@H](CC(C)C)C(=O)N[C@H]1C(=O)N[C@@H](CC(N)=O)C(=O)N[C@H]2C(=O)N[C@H]3C(=O)N[C@H](C(=O)N[C@H](C(=O)O)c4cc(O)cc(O)c4-c4cc3ccc4O)[C@H](O)c3ccc(c(Cl)c3)Oc3cc2cc(c3O[C@@H]2O[C@H](CO)[C@@H](O)[C@H](O)[C@H]2O[C@H]2C[C@](C)(N)[C@H](O)[C@H](C)O2)Oc2ccc(cc2Cl)[C@H]1O [vancomycin]																					MIC [16]: 2 µg/mL (≈ 1.38 µM)
CC(C)C[C@H](NC(=O)c1cc(Cl)ccc1O)C(=O)Nc1ccc(C(F)(F)F)cc1 [3f]	1.256	1.161	1.266	1.17 (≈ 0.502 µg/mL)	1900 ± 1100	0.07 (≈ 0.03 µg/mL)	4.66 (≈ 2 µg/mL)	4.66 (≈ 2 µg/mL)	9.33 (≈ 4 µg/mL)	1.17 (≈ 0.502 µg/mL)	0.07 (≈ 0.03 µg/mL)	1.17 (≈ 0.502 µg/mL)	did not affect plasma membrane permeability	1.17 (≈ 0.502 µg/mL)	18.7 µM and 18.7 n.d. µM	1× MIC (1× MBC)	1× MIC (1× MBC)	less than 70%	1.17 (≈ 0.502 µg/mL)	1.17 (≈ 0.502 µg/mL)	MIC (M. smegmatis ATCC 700084; MS, three days, 37 °C): 18.7 n.d. µM; MIC (M. smegmatis ATCC 700084; Mycolicibacterium smegmatis, ATCC700084, 72 h): 18.7 µM; MBC [17]: 9.33 µM (≈ 4 µg/mL); MBC [18]: 18.7 µM (≈ 8.02 µg/mL); MBC [19]: 37.3 µM (≈ 16 µg/mL); S. aureus Viability Inhibition (S. aureus ATCC 29213; at 1× MIC (1× MBC)): 95.3%; MBC [20]: 18.7 µM (≈ 8.02 µg/mL)
